Results reported in PubChem BioAssay (NCI).
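Following 48 hours of exposure in 96-well plates, responses at five concentrations were used to interpolate endpoints linearly. GI50 marks 50% less growth. The concentration for full growth arrest is given as TGI.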

Key:
Assay in all cases: NCI tumour cell line growth inhibition, 48 h
ACHN renal = tested on: ACHN renal
MDA-MB-468 breast = tested on: MDA-MB-468 breast
A549 NSCLC = tested on: A549 NSCLC
HS 578T breast = tested on: HS 578T breast
DU-145 prostate = tested on: DU-145 prostate
SNB-19 CNS = tested on: SNB-19 CNS
NCI-H460 lung = tested on: NCI-H460 lung
SK-MEL-5 melanoma = tested on: SK-MEL-5 melanoma
K-562 leukemia = tested on: K-562 leukemia
SN12C renal = tested on: SN12C renal
SW-620 colon = tested on: SW-620 colon
SK-MEL-28 melanoma = tested on: SK-MEL-28 melanoma
MDA-MB-435 = tested on: MDA-MB-435
UACC-257 melanoma = tested on: UACC-257 melanoma
A498 renal = tested on: A498 renal
NCI-H522 lung = tested on: NCI-H522 lung
HOP-92 NSCLC = tested on: HOP-92 NSCLC
PC-3 prostate = tested on: PC-3 prostate
SK-OV-3 ovarian = tested on: SK-OV-3 ovarian
MOLT-4 leukemia = tested on: MOLT-4 leukemia
SNB-75 CNS = tested on: SNB-75 CNS
EKVX NSCLC = tested on: EKVX NSCLC
CCRF-CEM leukemia = tested on: CCRF-CEM leukemia
NCI-H226 lung = tested on: NCI-H226 lung
MCF7 breast = tested on: MCF7 breast
OVCAR-4 ovarian = tested on: OVCAR-4 ovarian
COLO 205 colon = tested on: COLO 205 colon
SF-295 CNS = tested on: SF-295 CNS
RPMI-8226 leukemia = tested on: RPMI-8226 leukemia

## CN(C)c1nc(NCCNS(=O)(=O)c2ccc(C(=O)/C=C/c3ccc(Cl)cc3)cc2)nc(Nc2ccc(F)cc2)n1
ACHN renal
  GI50: 4.2 µM
  TGI: 15.3 µM
MDA-MB-468 breast
  GI50: 3.71 µM
  TGI: 14.8 µM
A549 NSCLC
  GI50: 4.52 µM
  TGI: 17.4 µM
HS 578T breast
  GI50: 11.4 µM
  TGI: 58.1 µM
DU-145 prostate
  GI50: 9.7 µM
  TGI: 21.8 µM
SNB-19 CNS
  GI50: 9.18 µM
  TGI: 21.3 µM
NCI-H460 lung
  GI50: 3.38 µM
  TGI: 13.8 µM
SK-MEL-5 melanoma
  GI50: 5.89 µM
  TGI: 18.8 µM
K-562 leukemia
  GI50: 3.29 µM
  TGI: > 100 µM
SN12C renal
  GI50: 3.79 µM
  TGI: 15.9 µM
SW-620 colon
  GI50: 2.78 µM
  TGI: 11 µM
SK-MEL-28 melanoma
  GI50: 6.77 µM
  TGI: 20.1 µM
MDA-MB-435
  GI50: 3.8 µM
  TGI: 14 µM
UACC-257 melanoma
  GI50: 8.36 µM
  TGI: 21.8 µM
A498 renal
  GI50: 10.5 µM
  TGI: 23.1 µM
NCI-H522 lung
  GI50: 7.1 µM
  TGI: 22 µM
HOP-92 NSCLC
  GI50: 3.83 µM
  TGI: 14.7 µM
PC-3 prostate
  GI50: 3.74 µM
  TGI: 14.1 µM
SK-OV-3 ovarian
  GI50: 11.5 µM
  TGI: 27.7 µM
MOLT-4 leukemia
  GI50: 3.07 µM
  TGI: > 100 µM
SNB-75 CNS
  GI50: 5.6 µM
  TGI: 25.7 µM
EKVX NSCLC
  GI50: 3.11 µM
  TGI: 14.7 µM
CCRF-CEM leukemia
  GI50: 3.75 µM
  TGI: > 100 µM
NCI-H226 lung
  GI50: 6.14 µM
  TGI: 24.3 µM
MCF7 breast
  GI50: 2.28 µM
  TGI: 6.33 µM
OVCAR-4 ovarian
  GI50: 5.92 µM
  TGI: 22 µM
COLO 205 colon
  GI50: 5.96 µM
  TGI: 18.7 µM
SF-295 CNS
  GI50: 6.11 µM
  TGI: 19.8 µM
RPMI-8226 leukemia
  GI50: 2.47 µM
  TGI: 7.11 µM
